Assay results from publication PMC4878759 (PLoS ONE, 2016).

What was measured:
human wild-type CFTR = biological target: T1, human wild-type CFTR (Homo sapiens, UniProt P13569); assay: Apical membrane current in FRT cells expressing CFTR; format: cell-based; conditions: up to 30 μM, CFTR activated by 20 μM forskolin
T1 construct: expressed in transfected cells; host or cells: Fischer rat thyroid (FRT) cells
Description: (§1) Snapwell inserts containing ANO1, ANO2 or CFTR expressing FRT cells, ENaC expressing T-84 cells or the human primary airway epithelial cells were mounted in Ussing chambers (Physiologic Instruments, San Diego, CA). To induce transcriptional ENaC induction, the polarized T84 cells were incubated with 2 mM sodium butyrate for 2 days. To increase the functional expression of ANO1, the human airway epithelial cells were treated with IL-4 (10 ng/mL) for 2 days. For T-84 and the human primary airway epithelial cells, the apical and basolateral bath were filled with HCO3^—buffered solution containing (in mM): 120 NaCl, 5 KCl, 1 MgCl2, 1 CaCl2, 10 D-glucose, 2.5 HEPES, and 25 NaHCO3 (pH 7.4). For FRT cells, the basolateral bath was filled with the HCO3^—buffered solution and the apical bath was filled with a half-Cl^- solution. In the half-Cl^- solution 65 mM NaCl in the HCO3^—buffered solution was replaced by Na-gluconate. […] ATP was applied to the apical bath solution to induce intracellular calcium increase. […] Apical membrane currents were measured with an EVC4000 Multi-Channel V/I Clamp (World Precision Instruments, Sarasota, FL) and PowerLab 4/35 (AD Instruments, Castle Hill, Australia). Data were analyzed using Labchart Pro 7 (AD Instruments). The sampling rate was 4 Hz.
(§2) ANO1 was activated by either 10 μM Eact, an ANO1 activator, or 100 μM ATP.

ENaC = biological target: T2, ENaC (Homo sapiens, UniProt P37088+P51168+P51170); assay: Short circuit current in T84 cells expressing ENaC; format: cell-based; conditions: up to 30 μM
T2 construct: endogenous in cells; host or cells: T84 cells, ENaC induced with 2 mM sodium butyrate for 2 days
T2 sequence (P37088 1-669): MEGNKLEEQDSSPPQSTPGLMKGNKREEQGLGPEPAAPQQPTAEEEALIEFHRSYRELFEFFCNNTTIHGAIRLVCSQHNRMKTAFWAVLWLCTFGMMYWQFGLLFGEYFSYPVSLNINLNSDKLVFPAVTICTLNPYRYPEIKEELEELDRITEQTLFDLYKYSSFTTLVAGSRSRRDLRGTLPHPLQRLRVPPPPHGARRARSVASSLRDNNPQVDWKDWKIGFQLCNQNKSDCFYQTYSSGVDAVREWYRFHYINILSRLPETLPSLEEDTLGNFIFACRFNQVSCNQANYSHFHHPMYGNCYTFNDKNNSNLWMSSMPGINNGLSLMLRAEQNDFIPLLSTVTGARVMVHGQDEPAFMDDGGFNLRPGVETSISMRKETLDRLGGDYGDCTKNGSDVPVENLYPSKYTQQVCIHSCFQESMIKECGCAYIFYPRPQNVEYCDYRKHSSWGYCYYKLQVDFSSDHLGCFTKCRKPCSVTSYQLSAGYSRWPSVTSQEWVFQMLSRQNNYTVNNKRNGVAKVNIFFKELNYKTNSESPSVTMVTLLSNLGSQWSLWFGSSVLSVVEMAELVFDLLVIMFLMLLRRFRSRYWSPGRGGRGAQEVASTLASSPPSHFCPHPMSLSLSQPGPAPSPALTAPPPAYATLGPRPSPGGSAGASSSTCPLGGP
T2 sequence (P51168 1-640): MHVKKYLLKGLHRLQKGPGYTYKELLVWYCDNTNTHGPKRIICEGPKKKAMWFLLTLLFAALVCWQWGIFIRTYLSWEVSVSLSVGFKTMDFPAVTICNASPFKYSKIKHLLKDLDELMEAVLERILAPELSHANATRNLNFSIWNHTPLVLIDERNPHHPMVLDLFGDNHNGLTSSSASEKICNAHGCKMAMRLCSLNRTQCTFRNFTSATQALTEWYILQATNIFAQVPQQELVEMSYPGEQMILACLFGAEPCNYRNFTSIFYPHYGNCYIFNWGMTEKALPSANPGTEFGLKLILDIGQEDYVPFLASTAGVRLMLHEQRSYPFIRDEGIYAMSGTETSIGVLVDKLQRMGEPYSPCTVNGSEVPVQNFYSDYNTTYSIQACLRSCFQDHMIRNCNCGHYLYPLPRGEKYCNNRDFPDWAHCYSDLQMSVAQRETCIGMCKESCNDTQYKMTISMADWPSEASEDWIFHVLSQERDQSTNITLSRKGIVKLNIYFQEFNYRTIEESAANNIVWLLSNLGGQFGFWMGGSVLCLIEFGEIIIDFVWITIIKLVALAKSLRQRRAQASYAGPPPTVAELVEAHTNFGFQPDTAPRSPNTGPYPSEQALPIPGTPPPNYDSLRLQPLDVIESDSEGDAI
T2 sequence (P51170 1-649): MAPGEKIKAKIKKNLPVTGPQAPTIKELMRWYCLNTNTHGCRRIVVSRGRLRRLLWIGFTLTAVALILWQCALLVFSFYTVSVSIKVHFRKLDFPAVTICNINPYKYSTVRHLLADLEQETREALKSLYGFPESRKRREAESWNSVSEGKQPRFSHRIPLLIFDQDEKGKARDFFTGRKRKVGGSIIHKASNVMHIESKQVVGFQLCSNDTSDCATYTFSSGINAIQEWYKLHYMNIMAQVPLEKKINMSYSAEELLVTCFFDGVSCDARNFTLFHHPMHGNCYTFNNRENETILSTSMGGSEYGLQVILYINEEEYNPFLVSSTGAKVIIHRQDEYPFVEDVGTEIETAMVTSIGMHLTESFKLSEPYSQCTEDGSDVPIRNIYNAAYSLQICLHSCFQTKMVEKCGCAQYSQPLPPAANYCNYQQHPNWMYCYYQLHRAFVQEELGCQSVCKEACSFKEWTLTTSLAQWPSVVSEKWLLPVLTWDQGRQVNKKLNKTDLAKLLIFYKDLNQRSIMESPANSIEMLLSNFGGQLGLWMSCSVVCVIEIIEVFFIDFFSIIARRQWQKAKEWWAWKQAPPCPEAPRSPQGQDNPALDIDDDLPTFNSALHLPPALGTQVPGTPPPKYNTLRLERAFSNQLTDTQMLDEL
Description: as §1, §2

T1 sequence (P13569 whole entry): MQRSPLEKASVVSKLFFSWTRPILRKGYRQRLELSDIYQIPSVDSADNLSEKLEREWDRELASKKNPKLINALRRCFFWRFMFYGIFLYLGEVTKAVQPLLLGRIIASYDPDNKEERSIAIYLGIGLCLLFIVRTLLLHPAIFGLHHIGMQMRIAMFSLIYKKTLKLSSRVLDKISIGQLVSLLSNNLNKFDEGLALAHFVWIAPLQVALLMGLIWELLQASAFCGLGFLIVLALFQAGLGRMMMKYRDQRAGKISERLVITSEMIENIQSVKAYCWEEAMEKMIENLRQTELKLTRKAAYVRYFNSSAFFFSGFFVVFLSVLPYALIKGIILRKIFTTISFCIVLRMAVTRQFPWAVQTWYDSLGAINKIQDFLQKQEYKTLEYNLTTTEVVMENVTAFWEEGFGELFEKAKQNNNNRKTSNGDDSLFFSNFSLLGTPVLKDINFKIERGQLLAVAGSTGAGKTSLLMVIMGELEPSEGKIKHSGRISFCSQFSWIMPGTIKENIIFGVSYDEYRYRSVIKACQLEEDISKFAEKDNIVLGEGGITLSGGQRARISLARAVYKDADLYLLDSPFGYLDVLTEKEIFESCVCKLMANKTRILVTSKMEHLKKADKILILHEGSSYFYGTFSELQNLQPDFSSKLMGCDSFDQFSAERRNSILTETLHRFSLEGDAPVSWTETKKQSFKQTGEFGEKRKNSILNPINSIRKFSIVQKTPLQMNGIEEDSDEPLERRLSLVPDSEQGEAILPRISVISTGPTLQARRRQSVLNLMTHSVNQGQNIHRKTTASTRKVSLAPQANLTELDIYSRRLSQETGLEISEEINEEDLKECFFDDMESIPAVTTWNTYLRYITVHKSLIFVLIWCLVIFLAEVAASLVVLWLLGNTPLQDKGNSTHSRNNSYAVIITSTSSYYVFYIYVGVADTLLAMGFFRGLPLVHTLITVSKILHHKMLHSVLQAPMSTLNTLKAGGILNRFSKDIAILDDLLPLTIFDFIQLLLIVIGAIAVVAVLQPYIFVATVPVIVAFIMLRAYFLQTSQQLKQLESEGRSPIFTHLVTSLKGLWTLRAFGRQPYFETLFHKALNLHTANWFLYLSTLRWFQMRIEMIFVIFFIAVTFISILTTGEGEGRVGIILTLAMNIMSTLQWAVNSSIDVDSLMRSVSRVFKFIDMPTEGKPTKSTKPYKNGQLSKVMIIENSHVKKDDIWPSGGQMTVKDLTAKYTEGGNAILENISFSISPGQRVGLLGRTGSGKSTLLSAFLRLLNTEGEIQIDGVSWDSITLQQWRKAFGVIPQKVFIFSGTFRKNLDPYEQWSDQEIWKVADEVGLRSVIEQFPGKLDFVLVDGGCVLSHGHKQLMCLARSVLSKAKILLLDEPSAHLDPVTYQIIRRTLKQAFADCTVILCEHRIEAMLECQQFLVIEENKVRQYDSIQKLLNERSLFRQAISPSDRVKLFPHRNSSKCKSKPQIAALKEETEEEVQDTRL

SMILES: COc1ccccc1C=NNC(=O)COc1ccc(Cl)cc1C [Ani9, 2-(4-chloro-2-methylphenoxy)-N-[(2-methoxyphenyl)methylideneamino]-acetamide]
- effect on CFTR channel activity (human wild-type CFTR): no effect
- effect on ENaC channel activity (ENaC): no effect
